Patent publication US20170035914A1, “FUNCTIONALIZED PEPTIDE TRANSPORTERS FOR CELLULAR UPTAKE” (General Electric Company, priority 2015, published 2017)
Primed or numbered codes have the meaning given here. 5‑FAM = 5-FAM fluorescein label; Npys′ = not defined here

Experiments:
live cells = assay: Live-cell fluorescence microscopy of cell uptake and nuclear labeling, cell type not given (FIG. 4, 6, 7, 9); type: cell-based
Text: (§1) A CPP-cargo construct (comprising a cell-penetrating moiety and a nuclear targeting moiety) was synthesized and conjugated via reactive 3-nitro-2-pyridinesulfenyl cysteine residues, and then purified by HPLC. When exogenously supplemented into cell staining media, these peptide fusions are designed to penetrate living cells and cleave into two subunits within the reducing environment of cell cytoplasm, thereby releasing a FITC-NLS peptide that is actively trafficked into the cell nucleus.

CHO cells = assay: Live-cell fluorescence microscopy of cell uptake and nuclear labeling by CPP-NLS-FAM fusion peptides; type: cell-based; conditions: mammalian CHO cells, compared with other tested cell-penetrating sequences, FIG. 4
Text: as §1, with “nucleus. Thus, the fusion peptide is convenient for discriminating nuclei by live-cell microscopy.” for “nucleus.”
(§2) Live human MRC5 cells and mammalian CHO cells were incubated with fusion proteins as depicted in the flow chart in FIG. 3, steps 1 through 9. […] The FITC-NLS/pVEC fusion was constructed by independently synthesizing a FITC-NLS-Npys peptide and a modified pVEC sequence containing a terminal cysteine residue: […]

MRC5 cells = assay: as above; type: cell-based, human
Text: as §1, with “nucleus. Thus, the fusion peptide is convenient for discriminating nuclei by live-cell microscopy.” for “nucleus.”
as §2

[1] = in the presence of excess monovalent pVEC (~132-156 μg/well), FIG. 7

Substance	effect of monovalent pVEC on cell uptake (live cells; higher amounts of monovalent pVEC (~132 μg/well), FIG. 9)	cell-uptake efficiency and nuclear labeling (CHO cells)	cell uptake and nuclear targeting (live cells; [1])	reduction in fusion peptide needed for equal or better cell uptake and nuclear labeling (live cells; [1])	delivery of the NLS-FAM cargo moiety into cells (live cells; various cell types, FIG. 4 legend)	cell-uptake efficiency and nuclear labeling (MRC5 cells; live human MRC5 cells, compared with other tested cell-penetrating sequences, FIG. 4)	effect of monovalent pVEC on cellular uptake (MRC5 cells; monovalent pVEC ~44 μg/well, MRC5 cells, FIG. 8)
5-FAM-GGPKKKRKVGGC(N-Pys)-OH ({5‑FAM}-GGPKKKRKVGGC(Npys′)-OH) [FITC-NLS-Npys]	enhanced cell uptake	–	–	–	–	–	–
5-FAM-GGPKKKRKVGGCCGGKSHAHAQKRIRRRLIILL (not fully specified; 5-FAM; disulfide-linked) [FAM-NLS-C-C-pVEC, disulfide-linked fusion of Fluorescein-NLS-Npys peptide and modified pVEC peptide]	–	highest	enhanced	at least 8 fold	high efficiency	highest	enhanced
